Square brackets hold non-standard residues; d marks the D form. Ends that are not written are not given here. pGlu = O=C1CC[C@@H](C(=O)O)N1
Legend:
HUVEC = experiment: Endothelial tube formation assay; format: cell-based, human; settings: 10 micrograms per ml, 20 hours
Source text: Positive control was vehicle only. […] Raw data were expressed as average tubule lenghs in pixels±standard deviation.

RAW 264.7 cells = experiment: Phagocytosis assay; settings: 10 micrograms per ml, Fluorescein-labeled Escherichia coli
[1] = test system: spleen cells of Ovalbumin-immunized Balb/c mice; experiment: Th1/Th2 cytokine profiling assay; format: cell-based, mouse; settings: 10 micrograms per ml; Ovalbumin restimulation; 72 hours
Source text: The Balb/c mice (originated in 1923, it is a popular strain and is used in many different research disciplines. Also classified as an inbred from the production of 20 or more successive brother-sister matings, the Balb/c mouse is albino and small in size) were immunized on Days 1, 15, and 29 with Ovalbumin (Ovalbumin is the main protein found in egg white, commonly used to stimulate an immunological reaction in test animals) in PBS (5 micrograms/injection). On day 50, spleens of the mice were harvested (3 weeks after last boost with Ovalbumin). Cells were cultured (2×10^5/well in triplicate) and incubated with culture medium or test peptides—10 micrograms per ml—for 30 min. Thereafter, additional Ovalbumin was added to the cells at 10 micrograms/ml for in vitro restimulation of the cells. 72 hours later, cell supernatants were harvested and assayed using the Becton Dickinson Mouse Th1/Th2 Cytokine CBA Kit.

HCMV strain AD169 = experiment: HCMV plaque formation assay in MRC-5 cells; settings: 10 micrograms per ml, 7-10 days
Source text: Cells were split twic a week 1:2.
Ganciclovir was used as positive control.

[2] = test system: hepatitis B virus (HBV) ayw strain; experiment: HBV experimental assay system, secreted HBV DNA by TaqMan PCR; format: cell-based; settings: 10 micrograms per ml; HepG2-2.2.15 cells; six days
[3] = test system: Primary Human endothelial cells (HUVEC); experiment: Endothelial cell migration assay; format: cell-based; settings: 10 micrograms per ml, 22 hours
Procedure: Thereafter, designated concentration of testing peptides—10 micrograms per ml—was added in duplicate wells.

Pyr-Ala-Asp-Pro-Asn-Lys-Phe-Tyr-Gly-Leu-Met-NH2 ([pGlu]ADPNKFYGLM-NH2; SMILES CSCC[C@H](NC(=O)[C@H](CC(C)C)NC(=O)CNC(=O)[C@H](Cc1ccc(O)cc1)NC(=O)[C@H](Cc1ccccc1)NC(=O)[C@H](CCCCN)NC(=O)[C@H](CC(N)=O)NC(=O)[C@@H]1CCCN1C(=O)[C@H](CC(=O)O)NC(=O)[C@H](C)NC(=O)[C@@H]1CCC(=O)N1)C(N)=O) [peptide 2]
inhibition of the tube formation of human endothelial cells (HUVEC): 6% | induction of phagocytosis as compared to the virus control experiment (RAW 264.7 cells): did not induce phagocytosis | IFNγ spleen cells; TH1 response (% of control) [1]: 74.2 % of control | IL-2 spleen cells (% of control) [1]: 0.0 % of control | IL-4 spleen cells; TH2 response (% of control) [1]: 0.0 % of control | IL-5 spleen cells; TH2 response (% of control) [1]: 53.0 % of control | TNF-a spleen cells; TH1 response (% of control) [1]: 85.7 % of control | inhibition of HCMV plaque formation as compared to the virus control experiment (HCMV strain AD169): did not show any inhibition | inhibition of HBV replication as compared to the virus control infection [2]: no effect | induction of the migration of human endothelial cells [3]: 15%

Gly-Leu-Ser-Lys-Gly-Cys-Phe-Gly-Leu-Lys-Leu-Asp-Arg-Ile-Gly-Ser-Met-Ser-Gly-Leu-Gly-Cys-OH (GLSKGCFGLKLDRIGSMSGLGC-OH; cysteine pairing not given here) [peptide 1]
inhibition of the tube formation of human endothelial cells (HUVEC): 22% | induction of phagocytosis as compared to the virus control experiment (RAW 264.7 cells): 42.9% | IFNγ spleen cells; TH1 response (% of control) [1]: 140.2 % of control | IL-2 spleen cells (% of control) [1]: 52.2 % of control | IL-4 spleen cells; TH2 response (% of control) [1]: 0.0 % of control | IL-5 spleen cells; TH2 response (% of control) [1]: 56.3 % of control | TNF-a spleen cells; TH1 response (% of control) [1]: 111.8 % of control | inhibition of HCMV plaque formation as compared to the virus control experiment (HCMV strain AD169): did not show any inhibition | inhibition of HBV replication as compared to the virus control infection [2]: 10.1%

Source: patent US20100249017A1, “USE OF CNP-22, ALONE OR IN COMBINATION WITH PHYSALEMIN, AS A THERAPEUTIC AGENT” (priority 2007, published 2010)
